From patent US20250388591A1 (CSPC ZHONGQI PHARMACEUTICAL TECHNOLOGY (SHIJIAZHUANG) CO., …, priority 2022, published 2025) come the findings set out here.

The test system of one assay is HCT116-MTAP−/− cells. The experiment in a line: Cell proliferation inhibition, HCT116 MTAP-/- (Cell Titer Glo, 5 days). In kind it is cell-based. To be noted: Homo sapiens, HCT-116, 120 h, 5 days treatment, read-out: HCT116 MTAP−/− cell proliferation inhibitory activity IC50:
On the procedure:
(§1) The specific operation procedures were as follows. Tumor cells were treated with test compounds for 5 days, and the effect of the test compounds on the proliferation of tumor cells was evaluated. HCT116-MTAP^−/− and wild-type control HCT116-WT (colorectal cancer cells) cells were seeded in a 384-well plate at a density of 600 cells/well, and at the same time, different concentrations of the test compounds (starting from 20 μM, 10 concentration gradients) were added. The cells were incubated at 37° C., 5% CO2, and saturated humidity for 5 days.
(§2) Cell proliferation was detected using an ATP-based Cell Proliferation Assay Kit (Cell Titer Glo, Promega Corporation). Cells were equilibrated at room temperature for 30 minutes and then treated with Cell Titer Glo reagent. The plate was then covered with aluminum foil and shaken for 15 minutes to allow mixing well and lysis. Chemiluminescence detection was performed using a multifunctional microplate reader (Envision 2105, PerkinElmer). A blank well (blank, cell-free) and a DMSO control well were set.
(§3) The inhibition rate (IR) of the test compounds was calculated using the following formula: […]
(§4) GraphPad Prism was used for graphing, data analysis and IC50 calculations.

The next assay concerns HCT116-WT cells. Description: Cell proliferation inhibition, HCT116 wild-type (Cell Titer Glo, 5 days). In kind it is cell-based. The conditions noted are these: Homo sapiens, HCT-116, 120 h, 5 days treatment, maximum inhibition rate <50% expressed as IC50 > maximum initial concentration, read-out: HCT116 MTAP+/+ cell proliferation inhibitory activity IC50:
The protocol: as §1, §2, §3, §4

The target of the next assay is T1, MAT2A (Homo sapiens, UniProt P31153).
T1 construct: purchased BPS Bioscience
The experiment in a line: MAT2A enzymatic assay (MAT2A Inhibitor Enzymatic Screening Kit). The conditions noted are these: MAT2A enzyme, colorimetric detection at 630 nm; read-out: Inhibitory activity against Enzyme (IC50: nM). In kind it is biochemical. On the procedure:
The inhibitory effect of the test compounds on the enzymatic activity of MAT2A was determined using MAT2A Inhibitor Enzymatic Screening Kit (BPS Bioscience).
1) Test compounds were dissolved in DMSO and mixed well until the test compounds were completely dissolved. All compounds were diluted with DMSO to a starting concentration of 2 mM, and diluted at a 3-fold ratio to a total of 10 concentration gradients. Duplicate wells were set. The compounds were added to the reaction system at a ratio of 1:100 (20 μM of the maximum final concentration) during detection. 100× positive control (1 mM AGI-24512) and 100× negative control (100% DMSO) were prepared.
2) 200 nL of each of the diluted compounds were transferred to each well of the reaction plate (Corning 3702) using an Echo 550 pipetting system, and the reaction plate was sealed with a sealing film, and centrifuged at 1000 g for 1 minute. The final concentration of DMSO was 1%.
3) Preparation of 1×MAT2A enzyme reaction buffer: 1× volume of 5×MAT2A enzyme reaction buffer was mixed well with 4× volumes of water.
4) 2×MAT2A enzyme solution was prepared with 1×MAT2A enzyme reaction buffer.
5) A 10 μL of 2×MAT2A enzyme solution was added to each well of the 384-reaction plate (Corning 3702), and the plate was sealed with a sealing film.
6) The plate was centrifuged at 1000 g for 60 seconds and incubated at room temperature for 30 minutes.
7) A mixture of 2×L-Methionine and ATP was prepared with 1×MAT2A enzyme reaction buffer.
8) 10 μL of the mixture of 2×L-Methionine and ATP was added to each well of the 384-reaction plate (Corning 3702), and the plate was sealed with a sealing film. The total reaction system was 20 μL.
9) The plate was centrifuged at 1000 g for 60 seconds and incubated at room temperature for 60 minutes.
10) The assay buffer Colorimetric Detection Rebgent was prepared.
11) 20 μL of the assay buffer was added to each well. The plate was centrifuged at 1000 g for 30 seconds and reacted at room temperature for 15 minutes.
12) Fluorescence signal at 630 nm was detected by a multifunctional microplate reader (PerkinElmer, Nivo).

SMILES strings stand for the structures.

T1 sequence (P31153 whole entry): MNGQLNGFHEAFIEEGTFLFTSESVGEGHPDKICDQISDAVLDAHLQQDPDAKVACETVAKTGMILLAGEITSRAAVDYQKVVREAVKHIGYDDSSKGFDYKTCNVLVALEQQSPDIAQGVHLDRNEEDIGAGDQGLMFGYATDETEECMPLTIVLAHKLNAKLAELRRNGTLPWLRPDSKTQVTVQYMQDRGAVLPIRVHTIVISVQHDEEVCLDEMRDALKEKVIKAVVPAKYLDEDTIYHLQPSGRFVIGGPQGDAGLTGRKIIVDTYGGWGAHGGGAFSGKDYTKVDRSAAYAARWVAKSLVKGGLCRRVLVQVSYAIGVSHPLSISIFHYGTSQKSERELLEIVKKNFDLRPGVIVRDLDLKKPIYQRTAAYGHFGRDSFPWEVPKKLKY

Regarding `Cc1ncccc1-n1c(=O)nc2c3c(cc(Cl)cc31)CN2c1ccc2nn(C)cc2c1` [Compound A38, 7-chloro-4-(2-methyl-2H-indazol-5-yl)-1-(2-methylpyridin-3-yl)-4,5-dihydropyrrolo[2,3,4-de]quinazolin-2(1H)-one], the IC50 in the assay on HCT116-MTAP−/− cells was 20 nM; in the assay with HCT116-WT cells it was more than 20000 nM; at MAT2A it was not above 50 nM.
Consider `CN1Cc2cc(C(F)(F)F)nc3c2c1nc(=O)n3-c1cccnc1Cl` [Compound A29], for which, on MAT2A, the IC50 was more than 100 nM.
On the same count and under the same terms, with `Cc1ncccc1-n1c(=O)nc2c3c(cc(C(F)(F)F)nc31)CCN2C` [Compound C1, 4-methyl-1-(2-methylpyridin-3-yl)-8-(trifluoromethyl)-5,6-dihydro-1H-pyrimidino[4,5,6-ij][2,7]naphthyridin-2(4H)-one] the figure was not above 50 nM; with `Cc1ncccc1-n1c(=O)nc2c3c(cc(Cl)cc31)CCCN2` [Compound B1, 9-chloro-1-(2-methylpyridin-3-yl)-4,5,6,7-tetrahydroazepino[2,3,4-de]quinazolin-2(1H)-one], more than 100 nM.
As for `Cc1ncccc1-n1c(=O)nc2c3c(cc(Cl)cc31)CN2c1ccc(Cl)cc1` [Compound A39, 7-chloro-4-(4-chlorophenyl)-1-(2-methylpyridin-3-yl)-4,5-dihydropyrrolo[2,3,4-de]quinazolin-2(1H)-one], the figures for the IC50 in the assay with HCT116-MTAP−/− cells, in the assay on HCT116-WT cells and on MAT2A were 308 nM, 1350 nM and not above 50 nM, respectively.
The like results for `Cc1ncccc1-n1c(=O)nc2c3c(cc(Cl)cc31)CN2C` [Compound A2, 7-chloro-4-methyl-1-(2-methylpyridin-3-yl)-4,5-dihydropyrrolo[2,3,4-de]quinazolin-2(1H)-one] were, in that order, 45 nM, more than 20000 nM and not above 50 nM.
With `Cc1ncccc1-n1c(=O)nc2c3c(cc(C(F)(F)F)nc31)CN2C` [Compound A19], the IC50 on MAT2A is more than 100 nM.
Still for that read-out and setting: with `COc1ncccc1-n1c(=O)nc2c3c(cc(Cl)cc31)CN2C` [Compound A40, 7-chloro-1-(2-methoxypyridin-3-yl)-4-methyl-4,5-dihydropyrrolo[2,3,4-de]quinazolin-2(1H)-one] the figure was 50 to 100 nM.
The same measure, in the same setting: under `Cc1ncccc1-n1c(=O)nc2c3c(cc(Cl)cc31)OCCN2` [Compound B2, 9-chloro-1-(2-methylpyridin-3-yl)-5,6-dihydro-1H-[1,4]oxazepino[5,6,7-de]quinazolin-2(4H)-one] stands more than 100 nM.
In the case of `CN1Cc2cc(Cl)cc3c2c1nc(=O)n3-c1cccnc1Cl` [Compound A16, 7-chloro-4-methyl-1-(2-chloropyridin-3-yl)-4,5-dihydropyrrolo[2,3,4-de]quinazolin-2(1H)-one], the values for the IC50 in the assay with HCT116-MTAP−/− cells, in the assay on HCT116-WT cells and on MAT2A were 112 nM, more than 20000 nM and not above 50 nM, respectively.
With `Cc1ncccc1-n1c(=O)nc2c3c(cc(Cl)cc31)CN2c1ccccc1` [Compound A3, 7-chloro-4-phenyl-1-(2-methylpyridin-3-yl)-4,5-dihydropyrrolo[2,3,4-de]quinazolin-2(1H)-one], at MAT2A, the IC50 is not above 50 nM.
On the same count and under the same terms, under `Cc1ncccc1-n1c(=O)nc2c3c(cc(Cl)cc31)NCC(O)N2C` (stereo not drawn) [Compound B3, 9-chloro-5-hydroxy-4-methyl-1-(2-methylpyridin-3-yl)-4,5,6,7-tetrahydro-[1,4]diazepino[5,6,7-de]quinazolin-2(1H)-one] stands 50 to 100 nM; under `CN1Cc2cc(Cl)cc3c2c1nc(=O)n3-c1cccnc1Cl` (single isomer, unassigned) [Compound A16-P2, 7-chloro-4-methyl-1-(2-chloropyridin-3-yl)-4,5-dihydropyrrolo[2,3,4-de]quinazolin-2(1H)-one], not above 50 nM.
As to `Cc1ncccc1-n1c(=O)nc2c3c(cc(Cl)cc31)CN2` [Compound A1, 7-chloro-1-(2-methylpyridin-3-yl)-4,5-dihydropyrrolo[2,3,4-de]quinazolin-2(1H)-one], the figures for the IC50 in the assay on HCT116-MTAP−/− cells, in the assay with HCT116-WT cells and on MAT2A were 199 nM, more than 20000 nM and not above 50 nM, respectively.
